Experiments:
[1] = target: T1, Steroid 17-alpha-hydroxylase/17,20 lyase (Homo sapiens, UniProt P05093); test: Inhibition of CYP17 in human testicular microsomes using 17alpha-hydroxypregnenolone as substrate assessed as decrease in DHEA levels at 1 nM after 90 mins by ELISA relative to control; parameters: species or system Testis
T1 sequence (P05093 whole entry): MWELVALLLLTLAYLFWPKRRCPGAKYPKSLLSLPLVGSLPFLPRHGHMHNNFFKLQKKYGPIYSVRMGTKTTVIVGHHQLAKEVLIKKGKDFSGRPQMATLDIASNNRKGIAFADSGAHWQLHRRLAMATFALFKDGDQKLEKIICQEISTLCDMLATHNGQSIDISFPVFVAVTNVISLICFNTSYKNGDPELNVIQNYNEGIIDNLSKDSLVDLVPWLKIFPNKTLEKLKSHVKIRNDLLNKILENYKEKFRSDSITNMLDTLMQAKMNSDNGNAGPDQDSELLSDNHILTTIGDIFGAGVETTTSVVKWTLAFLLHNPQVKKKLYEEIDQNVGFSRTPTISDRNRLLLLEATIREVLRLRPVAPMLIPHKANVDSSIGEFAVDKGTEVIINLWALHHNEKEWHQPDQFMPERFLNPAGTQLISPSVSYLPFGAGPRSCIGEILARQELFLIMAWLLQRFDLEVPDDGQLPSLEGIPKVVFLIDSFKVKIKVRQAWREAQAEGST

[2] = Half life in human liver microsomes at 1 uM by LC-MS/MS analysis
[3] = target: T2, CYP21 (steroid 21-hydroxylase) (Homo sapiens, UniProt P08686); test: Inhibition of human CYP21 transfected in HEK293 cells assessed as decrease in conversion of progesterone to 11-deoxycorticosterone preincubated for 5 hrs followed by progesterone addition measured after 20 hrs by ELISA; type: cell-based; parameters: concentration or dose not given beside the values; conditions: HEK293 cells transfected with human CYP21, probe progesterone
T2 sequence (P08686 whole entry): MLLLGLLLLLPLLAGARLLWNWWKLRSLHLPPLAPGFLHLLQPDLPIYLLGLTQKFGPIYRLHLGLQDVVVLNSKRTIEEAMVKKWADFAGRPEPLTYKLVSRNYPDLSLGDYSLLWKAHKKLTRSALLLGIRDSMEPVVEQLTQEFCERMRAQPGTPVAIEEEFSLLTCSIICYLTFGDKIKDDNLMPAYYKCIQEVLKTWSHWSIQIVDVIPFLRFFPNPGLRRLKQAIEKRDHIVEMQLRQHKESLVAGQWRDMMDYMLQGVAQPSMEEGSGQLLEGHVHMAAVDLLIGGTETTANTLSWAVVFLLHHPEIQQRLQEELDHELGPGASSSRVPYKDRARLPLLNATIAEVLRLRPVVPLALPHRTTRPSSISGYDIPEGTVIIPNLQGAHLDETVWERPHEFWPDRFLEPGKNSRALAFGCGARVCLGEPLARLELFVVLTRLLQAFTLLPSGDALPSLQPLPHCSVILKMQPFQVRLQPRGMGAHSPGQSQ

[4] = target: T1, Steroid 17-alpha-hydroxylase/17,20 lyase; test: Inhibition of CYP17 in human H295R cells assessed as decrease in testosterone levels after 24 hrs by ELISA; type: cell-based
[5] = target: T1, Steroid 17-alpha-hydroxylase/17,20 lyase; test: Inhibition of CYP17 in human testicular microsomes using 17alpha-hydroxypregnenolone as substrate assessed as decrease in DHEA levels after 90 mins by ELISA; parameters: species or system Testis
[6] = target: T1, Steroid 17-alpha-hydroxylase/17,20 lyase; test: Inhibition of CYP17 in human testicular microsomes using 17alpha-hydroxypregnenolone as substrate assessed as decrease in DHEA levels at 10 nM after 90 mins by ELISA relative to control; parameters: species or system Testis; conditions: 1.5 h
[7] = Half life in rat liver microsomes at 1 uM by LC-MS/MS analysis

Row | Compound | IC50 [1] | half-life at 1 µM [2] | inhibition at 20 h [3] | IC50 [4] | IC50 [5] | inhibition at 0.01 µM [6] | half-life at 1 µM [7]
1 | C[C@]12CC[C@H]3[C@@H](CC4(CC4)C4=CC(=O)CC[C@@]43C)C1=CC=C2c1cccnc1 | ≤ 10 nM | – | – | – | – | – | –
2 | CN1CC[C@@]2(C)C(=CC1=O)CC[C@H]1C3=CC=C(c4cncc(F)c4)[C@@]3(C)CC[C@@H]12 | > 100 nM | – | – | – | – | – | –
3 | C[C@]12CCC(=O)C=C1C=C[C@@H]1[C@@H]2CC[C@]2(C)C(c3cccnc3)=CC[C@@H]12 | > 100 nM | 1 to 50 min | ≥ 50% | – | – | – | –
4 | CC(=O)N[C@@H]1CC[C@@]2(C)C(=CC[C@@H]3[C@@H]2CC[C@]2(C)C(c4cccnc4)=CC[C@@H]32)C1 | – | 1 to 50 min | ≥ 50% | ≤ 15 nM | ≤ 11 nM | – | –
5 | CC1=C2CC[C@H]3C4=CC=C(c5cccnc5)[C@@]4(C)CC[C@@H]3[C@@]2(C)CCC1=O | > 100 nM | – | ≥ 50% | – | – | – | –
6 | C[C@]12CC[C@H]3[C@@H](CC4CC45C[C@@H](O)CC[C@]35C)[C@@H]1CC=C2c1cccnc1 (some centres undefined) | – | 1 to 50 min | ≥ 50% | ≤ 15 nM | ≤ 11 nM | – | –
7 | CC(=O)O[C@H]1CC[C@@]2(C)[C@@H](CC[C@@H]3[C@@H]2CC[C@]2(C)C(n4ccnn4)=CC[C@@H]32)C1 | – | – | – | ≤ 15 nM | ≤ 11 nM | ≥ 80% | –
8 | C[C@]12CC/C(=N\O)C=C1C1(CC1)C[C@@H]1[C@@H]2CC[C@]2(C)C(c3cccnc3)=CC[C@@H]12 | > 100 nM | – | 10 to 50% | – | – | – | –
9 | CN1CC[C@@]2(C)C(=CC1=O)C1CC1[C@H]1C3=CC=C(c4cccnc4)[C@@]3(C)CC[C@@H]12 (some centres undefined) | 10 to 100 nM | – | – | – | – | – | –
10 | C=C1C[C@H]2C3=CC=C(c4cccnc4)[C@@]3(C)CC[C@@H]2[C@@]2(C)C=CC(=O)C=C12 | ≤ 10 nM | 1 to 50 min | – | – | – | – | –
11 | CC1C[C@H]2C3=CC=C(c4cncc(F)c4)[C@@]3(C)CC[C@@H]2[C@@]2(C)CCNC(=O)C=C12 (some centres undefined) | 10 to 100 nM | 1 to 50 min | 10 to 50% | – | – | – | –
12 | C[C@]12CCC(=O)C=C1C1CC1[C@@H]1[C@@H]2CC[C@]2(C)C(c3cccnc3)=CC[C@@H]12 (some centres undefined) | > 100 nM | 1 to 50 min | ≥ 50% | – | – | – | –
13 | C[C@]12CC[C@H]3[C@@H](C=CC4=C(O)C(=O)CC[C@@]43C)C1=CC=C2c1cccnc1 | > 100 nM | 1 to 50 min | ≥ 50% | – | – | – | –
14 | C[C@]12CC[C@H]3[C@@H](CC=C4C[C@@H](O)CC[C@@]43C)C1=CC=C2c1cncc(F)c1 | – | 1 to 50 min | ≥ 50% | ≤ 15 nM | ≤ 11 nM | – | –
15 | CC1C[C@@H]2[C@H](CC[C@]3(C)C(c4cccnc4)CC[C@@H]23)[C@@]2(C)CCNC(=O)C=C12 (some centres undefined) | ≤ 10 nM | 1 to 50 min | – | – | – | – | –
16 | CC1C[C@@H]2[C@H](CC[C@]3(C)C(c4cccnc4)CC[C@@H]23)[C@@]2(C)CCC(=O)C=C12 (some centres undefined) | ≤ 10 nM | 1 to 50 min | – | – | – | – | –
17 | CC1C[C@@H]2[C@H](CC[C@]3(C)C(c4cncc(F)c4)=CC[C@@H]23)[C@@]2(C)C=CC(=O)C=C12 (some centres undefined) | 10 to 100 nM | – | ≥ 50% | – | ≤ 11 nM | – | –
18 | C[C@]12CC[C@H]3[C@@H](CC(C4CC4)C4=CC(=O)CC[C@@]43C)C1=CC=C2c1cccnc1 (some centres undefined) | > 100 nM | – | 10 to 50% | – | – | – | –
19 | C[C@]12CC[C@H]3[C@@H](CC[C@H]4C[C@@H](O)CC[C@@]43C)C1=CC=C2n1ccnc1 | – | ≥ 50 min | – | ≤ 15 nM | ≤ 11 nM | ≥ 80% | 10 to 60 min
20 | C[C@]12CCNC(=O)C=C1CC[C@@H]1[C@@H]2CC[C@]2(C)C(c3cncc(C(F)F)c3)=CC[C@@H]12 | – | 1 to 50 min | ≥ 50% | ≤ 15 nM | ≤ 11 nM | – | –

Row | Compound | IC50 [1] | half-life at 1 µM [2] | inhibition at 20 h [3] | IC50 [4] | IC50 [5] | inhibition at 0.01 µM [6] | half-life at 1 µM [7]
21 | CCC1C[C@@H]2[C@H](CC[C@]3(C)C(c4cccnc4)=CC[C@@H]23)[C@@]2(C)CCC(=O)C=C12 (some centres undefined) | 10 to 100 nM | – | 10 to 50% | – | – | – | –
22 | C[C@]12CC(O)CC1CC[C@@H]1[C@@H]2CC[C@]2(C)C(c3cncc(F)c3)=CC[C@@H]12 (some centres undefined) | – | ≥ 50 min | 10 to 50% | ≤ 15 nM | ≤ 11 nM | – | –
23 | C[C@]12CC(O)CC1CC[C@@H]1[C@@H]2CC[C@]2(C)C(c3cccnc3)=CC[C@@H]12 (some centres undefined) | – | 1 to 50 min | ≥ 50% | ≤ 15 nM | ≤ 11 nM | – | –
24 | C=C1C[C@H]2C3=CC=C(c4cccnc4)[C@@]3(C)CC[C@@H]2[C@@]2(C)CCC(=O)C=C12 | 10 to 100 nM | – | – | – | – | – | –
25 | C[C@]12C=C/C(=N\O)C=C1C1(CC1)C[C@@H]1[C@@H]2CC[C@]2(C)C(c3cccnc3)=CC[C@@H]12 | > 100 nM | – | 10 to 50% | – | – | – | –
26 | C[C@]12CCCC(=O)C1CC[C@@H]1[C@@H]2CC[C@]2(C)C(c3cccnc3)=CC[C@@H]12 (some centres undefined) | – | – | – | ≤ 15 nM | ≤ 11 nM | ≥ 80% | –
27 | CC1C[C@H]2C3=CC=C(c4cccnc4)[C@@]3(C)CC[C@@H]2[C@@]2(C)CCN(C)C(=O)C=C12 (some centres undefined) | 10 to 100 nM | – | – | – | – | – | –
28 | C[C@]12CCNC(=O)C=C1C1CC1[C@@H]1[C@@H]2CC[C@]2(C)C(c3cncc(F)c3)=CC[C@@H]12 (some centres undefined) | – | 1 to 50 min | ≥ 50% | ≤ 15 nM | ≤ 11 nM | – | –
29 | C[C@]12CCNC(=O)C[C@@H]1CC[C@@H]1[C@@H]2CC[C@]2(C)C(n3ccnn3)=CC[C@@H]12 | – | ≥ 50 min | – | ≤ 15 nM | ≤ 11 nM | ≥ 80% | 10 to 60 min
30 | C[C@]12CCC(=O)C=C1C1CC1[C@@H]1[C@@H]2CC[C@]2(C)C(c3cncc(F)c3)=CC[C@@H]12 (some centres undefined) | – | 1 to 50 min | ≥ 50% | ≤ 15 nM | ≤ 11 nM | – | –
31 | CC1C[C@@H]2[C@H](CC[C@]3(C)C(c4cccnc4)=CC[C@@H]23)[C@@]2(C)CC/C(=N\O)C=C12 (some centres undefined) | > 100 nM | 1 to 50 min | 10 to 50% | – | – | – | –
32 | C[C@]12CC[C@H]3[C@@H](CC(CO)C4=CC(=O)CC[C@@]43C)C1=CC=C2c1cccnc1 (some centres undefined) | > 100 nM | – | ≥ 50% | – | ≤ 11 nM | – | –
33 | C[C@]12CC[C@H]3[C@@H](CC(F)C4(O)C[C@@H](O)CC[C@]34C)[C@@H]1CC=C2c1cncc(F)c1 (some centres undefined) | – | 1 to 50 min | ≥ 50% | ≤ 15 nM | ≤ 11 nM | – | –
34 | C[C@]12CC[C@H]3[C@@H](CC4(CC4)C4=CC(=O)CC[C@@]43C)C1=CC=C2c1cncc(F)c1 | 10 to 100 nM | – | – | – | – | – | –
35 | C[C@]12CCC(=O)C=C1C=C[C@@H]1[C@@H]2CC[C@]2(C)C(c3cncc(F)c3)=CC[C@@H]12 | – | 1 to 50 min | ≥ 50% | ≤ 15 nM | ≤ 11 nM | – | –
36 | C[C@]12CC[C@H](O)CC1=CC[C@@H]1[C@@H]2CC[C@]2(C)C(c3cncc(C(F)F)c3)=CC[C@@H]12 | – | ≥ 50 min | ≥ 50% | ≤ 15 nM | ≤ 11 nM | – | –
37 | COc1cncc(C2=CC=C3[C@@H]4CC=C5C[C@@H](O)CC[C@]5(C)[C@H]4CC[C@]23C)c1 | – | ≥ 50 min | – | ≤ 15 nM | ≤ 11 nM | ≥ 80% | ≥ 50 min
38 | C=C1C[C@H]2C3=CC=C(c4cncc(F)c4)[C@@]3(C)CC[C@@H]2[C@@]2(C)CCC(=O)C=C12 | 10 to 100 nM | – | – | – | – | – | –
39 | CC1CC2C3=CC=C(c4cncc(F)c4)[C@@]3(C)CC[C@@H]2[C@@]2(C)CCN(C)C(=O)C=C12 (single isomer, unassigned) | > 100 nM | – | – | – | – | – | –
40 | C[C@]12CCC(=O)C=C1C(F)CC1[C@@H]2CC[C@]2(C)C(c3cccnc3)=CC[C@@H]12 (single isomer, unassigned) | – | 1 to 50 min | ≥ 50% | ≤ 15 nM | ≤ 11 nM | – | –
